# Like-named read-outs stand apart in the source and are kept apart here.
# Tests used:
# Test in all cases: KINOMEscan ScanTK
# Type in all cases: binding
# [1] = target: T1, IGF1R (Homo sapiens, UniProt P08069)
# T1 construct: purchased Eurofins DiscoverX KINOMEscan (scanTK)
# [2] = target: T2, ZAP70 (Homo sapiens, UniProt P43403)
# T2 construct: purchased Eurofins DiscoverX KINOMEscan (scanTK)
# T2 sequence (P43403 1-619): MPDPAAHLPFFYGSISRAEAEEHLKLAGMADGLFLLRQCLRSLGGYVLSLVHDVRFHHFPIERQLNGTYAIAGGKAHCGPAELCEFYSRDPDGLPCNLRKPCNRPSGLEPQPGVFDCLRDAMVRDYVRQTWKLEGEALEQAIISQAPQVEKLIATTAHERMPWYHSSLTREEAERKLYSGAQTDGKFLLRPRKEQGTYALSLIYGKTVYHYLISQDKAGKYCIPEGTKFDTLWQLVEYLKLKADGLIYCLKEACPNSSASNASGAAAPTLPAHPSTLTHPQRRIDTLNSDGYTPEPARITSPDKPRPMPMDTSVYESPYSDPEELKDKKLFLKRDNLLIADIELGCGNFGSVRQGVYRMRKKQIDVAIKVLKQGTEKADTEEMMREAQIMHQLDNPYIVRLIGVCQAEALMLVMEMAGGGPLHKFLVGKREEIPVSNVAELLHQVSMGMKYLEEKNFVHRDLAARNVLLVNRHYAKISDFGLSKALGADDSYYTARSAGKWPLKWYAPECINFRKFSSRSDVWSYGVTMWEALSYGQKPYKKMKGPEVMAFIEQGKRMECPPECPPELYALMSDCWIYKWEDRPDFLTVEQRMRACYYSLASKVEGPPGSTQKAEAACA
# [3] = target: T3, FRK (Homo sapiens, UniProt P42685)
# T3 construct: purchased Eurofins DiscoverX KINOMEscan (scanTK)
# [4] = target: T4, MST1R (Homo sapiens, UniProt Q04912)
# T4 construct: purchased Eurofins DiscoverX KINOMEscan (scanTK)
# [5] = target: T5, TEC (Homo sapiens, UniProt P42680)
# T5 construct: purchased Eurofins DiscoverX KINOMEscan (scanTK)
# T5 sequence (P42680 1-631): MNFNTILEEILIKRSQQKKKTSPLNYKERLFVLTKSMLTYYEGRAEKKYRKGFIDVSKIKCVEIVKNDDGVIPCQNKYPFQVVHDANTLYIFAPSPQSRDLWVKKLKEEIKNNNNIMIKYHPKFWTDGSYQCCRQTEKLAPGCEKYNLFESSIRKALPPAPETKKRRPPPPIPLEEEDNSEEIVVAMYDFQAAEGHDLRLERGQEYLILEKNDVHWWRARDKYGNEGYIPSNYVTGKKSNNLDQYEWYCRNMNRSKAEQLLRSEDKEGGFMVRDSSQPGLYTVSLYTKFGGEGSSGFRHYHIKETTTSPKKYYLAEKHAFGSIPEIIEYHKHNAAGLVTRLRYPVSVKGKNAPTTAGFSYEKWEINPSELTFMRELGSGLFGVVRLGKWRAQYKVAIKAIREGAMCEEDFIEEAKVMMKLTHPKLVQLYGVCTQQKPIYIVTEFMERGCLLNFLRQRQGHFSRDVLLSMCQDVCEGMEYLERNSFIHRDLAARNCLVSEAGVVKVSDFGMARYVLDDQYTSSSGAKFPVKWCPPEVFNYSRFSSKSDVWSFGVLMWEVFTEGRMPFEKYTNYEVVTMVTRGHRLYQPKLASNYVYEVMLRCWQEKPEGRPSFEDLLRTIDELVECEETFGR
# [6] = target: T6, EGFR(T790M) (Homo sapiens, UniProt P00533, T790M)
# T6 construct: purchased Eurofins DiscoverX KINOMEscan (scanTK)
# [7] = target: T7, ABL1-nonphosphorylated (Homo sapiens, UniProt P00519)
# T7 construct: purchased Eurofins DiscoverX KINOMEscan (scanTK)
# [8] = target: T8, PDGFRA (Homo sapiens, UniProt P16234)
# T8 construct: purchased Eurofins DiscoverX KINOMEscan (scanTK)
# [9] = target: T9, TYRO3 (Homo sapiens, UniProt Q06418)
# T9 construct: purchased Eurofins DiscoverX KINOMEscan (scanTK)
# T9 sequence (Q06418 41-890): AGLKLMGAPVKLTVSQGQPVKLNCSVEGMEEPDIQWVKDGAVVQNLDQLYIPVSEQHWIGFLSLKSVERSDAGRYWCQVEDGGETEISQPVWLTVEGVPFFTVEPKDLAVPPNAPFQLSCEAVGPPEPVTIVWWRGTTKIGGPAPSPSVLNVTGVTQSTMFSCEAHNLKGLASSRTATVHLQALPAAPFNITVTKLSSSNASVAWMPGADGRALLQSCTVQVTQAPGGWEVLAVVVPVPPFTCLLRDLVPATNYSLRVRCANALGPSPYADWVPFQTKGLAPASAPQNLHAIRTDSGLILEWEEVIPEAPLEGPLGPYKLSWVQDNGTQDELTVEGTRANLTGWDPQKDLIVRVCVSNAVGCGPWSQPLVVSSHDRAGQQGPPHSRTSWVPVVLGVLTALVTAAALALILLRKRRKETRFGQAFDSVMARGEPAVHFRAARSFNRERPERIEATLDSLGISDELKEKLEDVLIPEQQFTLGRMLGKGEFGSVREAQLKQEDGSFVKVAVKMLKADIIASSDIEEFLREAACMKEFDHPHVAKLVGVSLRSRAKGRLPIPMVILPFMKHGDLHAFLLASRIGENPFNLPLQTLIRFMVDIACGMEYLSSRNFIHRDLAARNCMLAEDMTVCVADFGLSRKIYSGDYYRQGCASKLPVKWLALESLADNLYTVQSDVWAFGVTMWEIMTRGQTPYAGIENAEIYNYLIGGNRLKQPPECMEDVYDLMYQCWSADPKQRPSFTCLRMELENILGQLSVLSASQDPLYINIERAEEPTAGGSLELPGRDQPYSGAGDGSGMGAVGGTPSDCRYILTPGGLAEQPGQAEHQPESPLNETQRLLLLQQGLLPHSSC
# [10] = target: T10, BTK (Homo sapiens, UniProt Q06187); conditions: for remaining binding at 1 µM: BTK
# T10 construct: purchased Eurofins DiscoverX KINOMEscan (scanTK)
# [11] = target: T11, EGFR(L861Q) (Homo sapiens, UniProt P00533, L861Q)
# T11 construct: purchased Eurofins DiscoverX KINOMEscan (scanTK)
# T11 sequence (P00533 25-1210 L861Q): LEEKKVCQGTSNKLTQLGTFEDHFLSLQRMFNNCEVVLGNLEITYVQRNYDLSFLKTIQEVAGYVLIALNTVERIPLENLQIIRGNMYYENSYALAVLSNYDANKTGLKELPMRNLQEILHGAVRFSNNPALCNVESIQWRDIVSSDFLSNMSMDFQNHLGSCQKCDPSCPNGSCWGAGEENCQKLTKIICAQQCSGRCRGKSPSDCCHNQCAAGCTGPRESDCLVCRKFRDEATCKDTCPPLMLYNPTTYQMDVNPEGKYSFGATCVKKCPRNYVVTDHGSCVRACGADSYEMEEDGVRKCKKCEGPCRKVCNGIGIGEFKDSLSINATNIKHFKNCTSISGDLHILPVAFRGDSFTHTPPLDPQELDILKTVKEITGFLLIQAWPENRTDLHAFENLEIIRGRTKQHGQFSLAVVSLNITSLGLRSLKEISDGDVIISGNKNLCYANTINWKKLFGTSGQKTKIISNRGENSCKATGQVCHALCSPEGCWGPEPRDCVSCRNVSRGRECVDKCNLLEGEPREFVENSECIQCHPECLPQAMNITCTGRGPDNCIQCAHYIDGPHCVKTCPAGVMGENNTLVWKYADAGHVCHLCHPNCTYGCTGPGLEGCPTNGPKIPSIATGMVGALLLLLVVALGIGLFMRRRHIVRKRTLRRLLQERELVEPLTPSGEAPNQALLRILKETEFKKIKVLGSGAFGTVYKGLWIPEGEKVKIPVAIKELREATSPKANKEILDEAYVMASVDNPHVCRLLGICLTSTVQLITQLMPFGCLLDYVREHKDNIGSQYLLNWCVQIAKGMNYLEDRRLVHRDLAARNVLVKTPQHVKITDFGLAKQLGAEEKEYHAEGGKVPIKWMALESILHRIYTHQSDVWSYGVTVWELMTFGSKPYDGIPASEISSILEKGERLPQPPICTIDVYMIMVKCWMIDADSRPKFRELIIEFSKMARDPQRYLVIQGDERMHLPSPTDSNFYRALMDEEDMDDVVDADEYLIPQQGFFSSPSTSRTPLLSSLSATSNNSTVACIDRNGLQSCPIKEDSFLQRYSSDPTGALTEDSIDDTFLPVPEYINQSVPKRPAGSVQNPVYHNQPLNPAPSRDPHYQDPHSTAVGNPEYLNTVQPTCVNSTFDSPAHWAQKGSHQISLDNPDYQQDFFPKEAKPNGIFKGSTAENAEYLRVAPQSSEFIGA
# T1 sequence (P08069 31-1367): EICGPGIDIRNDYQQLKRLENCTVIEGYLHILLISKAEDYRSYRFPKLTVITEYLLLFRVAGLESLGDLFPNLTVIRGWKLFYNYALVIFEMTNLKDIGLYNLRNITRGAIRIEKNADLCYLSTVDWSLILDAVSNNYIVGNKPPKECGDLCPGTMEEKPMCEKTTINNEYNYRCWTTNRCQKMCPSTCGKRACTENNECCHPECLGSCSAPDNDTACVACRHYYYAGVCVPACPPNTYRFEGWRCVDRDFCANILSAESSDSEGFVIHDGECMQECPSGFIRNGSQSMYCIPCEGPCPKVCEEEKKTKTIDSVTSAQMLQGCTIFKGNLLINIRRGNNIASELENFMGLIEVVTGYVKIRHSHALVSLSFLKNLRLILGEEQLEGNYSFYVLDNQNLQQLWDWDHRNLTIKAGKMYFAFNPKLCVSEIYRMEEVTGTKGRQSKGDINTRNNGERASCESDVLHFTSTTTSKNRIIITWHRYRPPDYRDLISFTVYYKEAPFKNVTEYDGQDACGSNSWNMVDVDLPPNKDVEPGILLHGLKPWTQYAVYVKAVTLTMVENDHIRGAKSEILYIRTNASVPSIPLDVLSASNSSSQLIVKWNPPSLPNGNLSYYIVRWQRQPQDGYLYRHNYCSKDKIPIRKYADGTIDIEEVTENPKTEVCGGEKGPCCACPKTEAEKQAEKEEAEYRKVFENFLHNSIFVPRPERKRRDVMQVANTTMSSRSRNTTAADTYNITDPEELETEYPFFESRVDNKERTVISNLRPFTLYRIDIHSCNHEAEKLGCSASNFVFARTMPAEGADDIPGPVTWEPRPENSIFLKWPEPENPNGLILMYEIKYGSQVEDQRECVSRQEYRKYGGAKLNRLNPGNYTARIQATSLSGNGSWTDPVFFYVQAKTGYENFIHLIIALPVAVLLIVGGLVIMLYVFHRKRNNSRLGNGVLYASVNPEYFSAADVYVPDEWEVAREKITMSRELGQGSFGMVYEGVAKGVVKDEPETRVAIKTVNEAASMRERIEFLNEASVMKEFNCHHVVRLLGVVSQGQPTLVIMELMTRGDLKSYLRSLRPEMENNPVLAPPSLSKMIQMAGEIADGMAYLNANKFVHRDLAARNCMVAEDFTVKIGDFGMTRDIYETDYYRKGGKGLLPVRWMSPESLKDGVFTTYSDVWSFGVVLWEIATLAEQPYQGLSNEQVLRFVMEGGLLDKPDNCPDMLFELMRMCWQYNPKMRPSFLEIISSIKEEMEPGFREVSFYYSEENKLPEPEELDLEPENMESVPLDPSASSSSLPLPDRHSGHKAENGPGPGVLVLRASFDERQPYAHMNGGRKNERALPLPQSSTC
# T7 sequence (P00519 whole entry): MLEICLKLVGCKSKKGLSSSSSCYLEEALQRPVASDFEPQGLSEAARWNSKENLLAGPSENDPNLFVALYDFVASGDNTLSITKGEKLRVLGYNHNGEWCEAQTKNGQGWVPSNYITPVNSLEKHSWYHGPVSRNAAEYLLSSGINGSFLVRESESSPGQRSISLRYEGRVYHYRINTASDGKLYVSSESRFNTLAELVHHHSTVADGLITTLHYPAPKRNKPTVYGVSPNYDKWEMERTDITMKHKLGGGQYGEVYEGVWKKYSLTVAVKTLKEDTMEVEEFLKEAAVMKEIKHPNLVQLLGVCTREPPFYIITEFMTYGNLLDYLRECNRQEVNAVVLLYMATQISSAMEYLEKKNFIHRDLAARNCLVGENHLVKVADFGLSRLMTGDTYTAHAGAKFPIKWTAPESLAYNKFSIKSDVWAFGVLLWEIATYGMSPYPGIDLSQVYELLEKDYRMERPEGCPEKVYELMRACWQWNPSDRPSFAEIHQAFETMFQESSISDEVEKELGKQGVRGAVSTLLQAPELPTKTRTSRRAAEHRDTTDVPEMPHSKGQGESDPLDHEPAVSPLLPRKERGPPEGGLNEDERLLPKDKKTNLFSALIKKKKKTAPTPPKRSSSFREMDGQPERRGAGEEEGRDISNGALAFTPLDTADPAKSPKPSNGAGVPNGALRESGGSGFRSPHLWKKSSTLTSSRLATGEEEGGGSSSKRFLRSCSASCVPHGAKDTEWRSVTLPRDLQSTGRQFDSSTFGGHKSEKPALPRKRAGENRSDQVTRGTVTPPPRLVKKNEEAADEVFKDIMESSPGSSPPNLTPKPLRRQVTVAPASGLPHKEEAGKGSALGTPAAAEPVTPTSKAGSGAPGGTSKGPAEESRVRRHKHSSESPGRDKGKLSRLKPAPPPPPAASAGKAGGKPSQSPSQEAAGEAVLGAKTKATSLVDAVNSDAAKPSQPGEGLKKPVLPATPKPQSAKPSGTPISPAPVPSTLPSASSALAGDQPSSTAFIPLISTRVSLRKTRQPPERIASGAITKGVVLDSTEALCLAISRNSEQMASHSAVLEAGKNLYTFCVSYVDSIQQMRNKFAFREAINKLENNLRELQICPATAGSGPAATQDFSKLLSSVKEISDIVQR
# T3 sequence (P42685 whole entry): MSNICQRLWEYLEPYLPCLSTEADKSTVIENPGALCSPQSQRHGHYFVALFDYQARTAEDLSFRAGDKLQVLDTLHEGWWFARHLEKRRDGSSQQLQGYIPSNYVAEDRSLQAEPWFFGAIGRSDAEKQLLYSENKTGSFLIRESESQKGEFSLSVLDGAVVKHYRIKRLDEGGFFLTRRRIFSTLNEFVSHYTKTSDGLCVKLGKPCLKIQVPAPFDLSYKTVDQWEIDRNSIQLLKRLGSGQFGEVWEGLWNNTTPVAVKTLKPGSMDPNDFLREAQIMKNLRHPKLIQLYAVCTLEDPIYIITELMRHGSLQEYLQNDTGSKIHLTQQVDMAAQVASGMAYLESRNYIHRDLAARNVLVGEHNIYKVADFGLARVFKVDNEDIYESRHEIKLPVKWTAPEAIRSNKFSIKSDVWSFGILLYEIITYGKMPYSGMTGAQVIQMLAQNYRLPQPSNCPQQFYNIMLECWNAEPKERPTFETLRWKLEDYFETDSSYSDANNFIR
# T10 sequence (Q06187 whole entry): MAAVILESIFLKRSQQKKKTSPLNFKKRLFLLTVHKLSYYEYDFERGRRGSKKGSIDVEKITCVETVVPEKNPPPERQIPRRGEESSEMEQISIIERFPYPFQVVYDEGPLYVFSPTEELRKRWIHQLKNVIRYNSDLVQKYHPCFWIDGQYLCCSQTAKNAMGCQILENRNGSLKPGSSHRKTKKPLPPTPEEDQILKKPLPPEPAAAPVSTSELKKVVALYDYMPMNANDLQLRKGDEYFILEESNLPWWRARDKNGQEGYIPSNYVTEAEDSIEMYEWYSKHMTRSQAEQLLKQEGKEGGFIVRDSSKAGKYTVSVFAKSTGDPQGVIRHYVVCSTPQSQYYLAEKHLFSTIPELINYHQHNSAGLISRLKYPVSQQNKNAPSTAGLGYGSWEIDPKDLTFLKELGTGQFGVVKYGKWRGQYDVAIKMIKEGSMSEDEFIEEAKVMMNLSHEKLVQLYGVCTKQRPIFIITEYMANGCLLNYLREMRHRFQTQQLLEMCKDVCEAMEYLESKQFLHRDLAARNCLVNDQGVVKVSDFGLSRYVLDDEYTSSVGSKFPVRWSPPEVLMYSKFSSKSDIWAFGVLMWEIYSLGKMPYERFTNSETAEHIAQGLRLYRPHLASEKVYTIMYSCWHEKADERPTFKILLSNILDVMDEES
compound,measurement,setting,value
"CNC(=O)c1cnc(S(C)(=O)=O)nc1N1CCCC(n2nc(-c3ccc(Oc4ccccc4)cc3)c3c(N)ncnc32)C1 (centres unmarked) [Compound 8d, 4-(3-(4-Amino-3-(4-phenoxyphenyl)-1H-pyrazolo[3,4-d]pyrimidin-1-yl)piperidin-1-yl)-N-methyl-2-(methylsulfonyl)pyrimidine-5-carboxamide]",% Control difference from reference compound Ib at 1 µM,[1]; @1000nM,4%
same,remaining binding at 1 µM,"[1]; @1000nM, read-out: %Control",100%
same,remaining binding at 1 µM,[1]; read-out: %Control @1000nM,100%
same,remaining binding at 1 µM,"[2]; @1000nM, read-out: %Control",100%
same,remaining binding at 1 µM,[2]; read-out: %Control @1000nM,100%
same,difference in %Control versus compound Ib at 1 µM,[3]; @1000nM,33.7%
same,remaining binding at 1 µM,"[3]; @1000nM, read-out: %Control",43%
same,remaining binding at 1 µM,[3]; read-out: %Control @1000nM,43%
same,remaining binding at 1 µM,"[4]; @1000nM, read-out: %Control",100%
same,remaining binding at 1 µM,[4]; read-out: %Control @1000nM,100%
same,remaining binding at 1 µM,"[5]; @1000nM, read-out: %Control",40%
same,remaining binding at 1 µM,[5]; read-out: %Control @1000nM,40%
same,difference in % of control versus compound Ib at 1 µM,[6]; @1000nM,18.6%
same,remaining binding at 1 µM,"[6]; @1000nM, read-out: %Control",19%
same,remaining binding at 1 µM,[6]; read-out: %Control @1000nM,19%
same,difference in %Control from reference compound Ib at 1 µM,[7]; @1000nM,24.5%
same,remaining binding at 1 µM,"[7]; @1000nM, read-out: %Control",33%
same,remaining binding at 1 µM,[7]; read-out: %Control @1000nM,33%
same,remaining binding at 1 µM,"[8]; @1000nM, read-out: %Control",78%
same,remaining binding at 1 µM,[8]; read-out: %Control @1000nM,78%
same,remaining binding at 1 µM,"[9]; @1000nM, read-out: %Control",32%
same,remaining binding at 1 µM,[9]; read-out: %Control @1000nM,32%
same,remaining binding at 1 µM,"[10]; @1000nM, read-out: % difference (compound - Ib %Control)",0%
same,remaining binding at 1 µM,"[10]; @1000nM, read-out: %Control",0%
same,remaining binding at 1 µM,[10]; read-out: %Control @1000nM,0%
same,inhibition at 1 µM,"[10]; ScanTK, 1 μM",> 99%
same,difference in % of control versus compound Ib at 1 µM,[11]; @1000nM,28.2%
same,remaining binding at 1 µM,"[11]; @1000nM, read-out: %Control",29%
same,remaining binding at 1 µM,[11]; read-out: %Control @1000nM,29%

# From publication PMC11345841, “Exploring 2-Sulfonylpyrimidine Warheads as Acrylamide Surrogates for Targeted Covalent Inhibition: A BTK Story” (Journal of Medicinal Chemistry, 2024)
